Measured values published in patent publication US20260285816A1, “Piperazinyl-Modified Quinazolinyl-Aryl Urea Derivative, And Preparation Method And Use Thereof” (Guangxi Normal University, priority 2025, published 2026).
Like-named read-outs stand apart in the source and are kept apart here.

Assays:
Format in all cases: cell-based, human
5637 cells = experiment: CCK-8 anti-proliferative assay, 5637; conditions: Homo sapiens; Table 10; co-incubated 48 h; read-out: Anti-proliferative activity (IC50 ± standard deviation) 5637
Procedure, shortened: (§1)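 CCK-8 viability assay: compounds at final 1, 2, 4, 6, 8, 12, 16, 24 and 30 μM (3 wells each) added once cultures of 5,000 cells/well reached 70% confluence at 37° C, 5% CO2.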

[1] = tested on: immortalized ureteral epithelial cells (SV-HUC-1); experiment: CCK-8 anti-proliferative assay, normal cells SV-HUC-1; conditions: Homo sapiens, SV-HUC1; Table 13; normal cells; co-incubated 48 h; read-out: Anti-proliferative activity (IC50 ± standard deviation) SV-HUC-1
Procedure, shortened: as §1

A549 cells = experiment: CCK-8 anti-proliferative assay, A549; conditions: Homo sapiens, A549; Table 13; co-incubated 48 h; read-out: Anti-proliferative activity (IC50 ± standard deviation) A549
Procedure, shortened: as §1

HeLa cells = experiment: CCK-8 anti-proliferative assay, HeLa; conditions: Homo sapiens, HeLa; Table 12; co-incubated 48 h; read-out: Anti-proliferative activity (IC50 ± standard deviation) HeLa
Procedure, shortened: as §1

UM-UC-3 cells = experiment: CCK-8 anti-proliferative assay, UM-UC-3; conditions: Homo sapiens, UMUC3; Table 10; co-incubated 48 h; read-out: Anti-proliferative activity (IC50 ± standard deviation) UM-UC-3
Procedure, shortened: as §1

T24 cells = experiment: CCK-8 anti-proliferative assay, T24; conditions: Homo sapiens, T-24; Table 10; co-incubated 48 h; read-out: Anti-proliferative activity (IC50 ± standard deviation) T24
Procedure, shortened: (§2)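 Human tumour cells were seeded at 5,000 per well and grown to 70% confluence. They were then treated in triplicate with compound at 1–30 μM (final) for the designated time. Viability was read by CCK-8 absorbance at 450 nm after 1–4 h, and IC50 was derived from % inhibition versus control.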

143B cells = experiment: CCK-8 anti-proliferative assay, 143B; conditions: Homo sapiens, 143B; Table 11; co-incubated 48 h; read-out: Anti-proliferative activity (IC50 ± standard deviation) 143B
Procedure, shortened: as §2

PANC-1 cells = experiment: CCK-8 anti-proliferative assay, PANC-1; conditions: for IC50: Homo sapiens, PANC-1, Table 11, co-incubated 48 h, read-out: Anti-proliferative activity (IC50 ± standard deviation) PANC-1
Procedure, shortened: as §2

Hep G2 cells = experiment: CCK-8 anti-proliferative assay, Hep G2; conditions: for IC50: Homo sapiens, HepG2
Procedure, shortened: as §2

SK-OV-3 cells = experiment: CCK-8 anti-proliferative assay, SK-OV-3; conditions: Homo sapiens, SK-OV-3; Table 12; co-incubated 48 h; read-out: Anti-proliferative activity (IC50 ± standard deviation) SK-OV-3
Procedure, shortened: as §1

MG-63 cells = experiment: CCK-8 anti-proliferative assay, MG-63; conditions: Homo sapiens, MG-63; Table 11; co-incubated 48 h; read-out: Anti-proliferative activity (IC50 ± standard deviation) MG-63
Procedure, shortened: as §2

J82 cells = experiment: CCK-8 anti-proliferative assay, J82; conditions: Homo sapiens, J82; Table 10; co-incubated 48 h; read-out: Anti-proliferative activity (IC50 ± standard deviation) J82
Procedure, shortened: as §1

MCF-7 cells = experiment: CCK-8 anti-proliferative assay, MCF-7; conditions: Homo sapiens, MCF7; Table 12; co-incubated 48 h; read-out: Anti-proliferative activity (IC50 ± standard deviation) MCF-7
Procedure, shortened: as §1

[2] = tested on: embryonic lung fibroblasts (WI-38); experiment: CCK-8 anti-proliferative assay, normal cells WI-38; conditions: Homo sapiens, WI-38, Table 13, co-incubated 48 h, read-out: Anti-proliferative activity (IC50 ± standard deviation) WI-38
Procedure, shortened: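 Cells seeded at 5,000/well were grown at 37° C. under 5% CO2 to 70% confluency, then exposed in triplicate to 1–30 μM compound (1, 2, 4, 6, 8, 12, 16, 24, 30 μM) for designated durations. CCK-8 was added for 1–4 h, OD read at 450 nm, and IC50 derived from inhibition versus control.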

BxPC-3 cells = experiment: CCK-8 anti-proliferative assay, BxPC-3; conditions: for IC50: Homo sapiens, BXPC-3, Table 11, co-incubated 48 h, read-out: Anti-proliferative activity (IC50 ± standard deviation) BxPC-3
Procedure, shortened: as §2

[3] = Table 12, co-incubated 48 h, read-out: Anti-proliferative activity (IC50 ± standard deviation) Hep G2

| SMILES | IC50 (A549 cells) [µM] | IC50 (HeLa cells) [µM] | IC50 (T24 cells) [µM] | IC50 (PANC-1 cells) [µM] | IC50 (SK-OV-3 cells) [µM] | IC50 (MCF-7 cells) [µM] | IC50 (BxPC-3 cells) [µM] | IC50 (5637 cells) [µM] | IC50 [1] [µM] | IC50 (UM-UC-3 cells) [µM] | IC50 (143B cells) [µM] | IC50 (Hep G2 cells; [3]) [µM] | IC50 (MG-63 cells) [µM] | IC50 (J82 cells) [µM] | IC50 [2] [µM] | Sensitivity of PANC-1, in words (PANC-1 cells) | Anti-proliferative activity against Hep G2 versus comparative series, in words (Hep G2 cells) | IC50 (Hep G2 cells; read-out: IC50 on Hep G2) [µM] | Sensitivity of BxPC-3 / anti-proliferative activity against BxPC-3, in words (BxPC-3 cells) |
| --- | --- | --- | --- | --- | --- | --- | --- | --- | --- | --- | --- | --- | --- | --- | --- | --- | --- | --- | --- |
| COc1cc2ncnc(NCc3cccc(NC(=O)Nc4ccccc4)c3)c2cc1OCCCCCCN1CCC(CN2CCN(c3ccccn3)CC2)CC1 [Compound 8-2a, N-(3-(((7-methoxy-6-((6-(4-((4-(pyridin-2-yl)piperazin-1-yl)methyl)piperidin-1-yl)hexyl)oxy)quinazolin-4-yl)amino)methyl)phenyl)-N′-phenylurea] | > 30 | > 30 | 15.8 ± 0.92 | > 30 | 22.4 ± 1.33 | 26.3 ± 1.46 | > 30 | 16.2 ± 0.77 | 26.4 ± 1.69 | 25.8 ± 1.81 | > 30 | 25.7 ± 1.81 | 17.4 ± 1.38 | > 30 | 17.6 ± 0.72 |  |  |  |  |
| COc1cc2ncnc(NCc3cccc(NC(=O)Nc4ccc(C)cc4)c3)c2cc1OCCCCCCN1CCC(CN2CCN(c3ccccn3)CC2)CC1 [Compound 8-2d, N-(3-(((7-methoxy-6-((6-(4-((4-(pyridin-2-yl)piperazin-1-yl)methyl)piperidin-1-yl)hexyl)oxy)quinazolin-4-yl)amino)methyl)phenyl)-N′-(4-methylphenyl)urea] | 9.23 ± 0.61 | 4.79 ± 0.38 | 6.62 ± 0.49 | 25.4 ± 2.04 | 6.79 ± 0.62 | 7.92 ± 0.51 | 9.29 ± 0.73 | 14.3 ± 0.89 | 7.94 ± 0.44 | 7.58 ± 0.79 | 6.92 ± 0.39 | 3.82 ± 0.25 | 7.29 ± 0.62 | 13.8 ± 1.33 | 9.79 ± 0.38 |  |  |  |  |
| CCc1ccccc1NC(=O)Nc1cccc(CNc2ncnc3cc(OC)c(OCCCCCCN4CCC(CN5CCN(c6ccccn6)CC5)CC4)cc23)c1 [Compound 8-2g, N-(3-(((7-methoxy-6-((6-(4-((4-(pyridin-2-yl)piperazin-1-yl)methyl)piperidin-1-yl)hexyl)oxy)quinazolin-4-yl)amino)methyl)phenyl)-N′-(2-ethylphenyl)urea] | 6.59 ± 0.64 | 5.62 ± 0.44 | 7.04 ± 0.55 | 8.79 ± 0.98 | 8.96 ± 0.83 | 7.62 ± 0.77 | 8.56 ± 0.72 | 6.04 ± 0.43 | 7.42 ± 0.35 | 11.6 ± 0.62 | 5.37 ± 0.29 | 6.38 ± 0.44 | 6.04 ± 0.65 | 5.76 ± 0.31 | 9.39 ± 0.41 |  |  |  |  |
| COc1cc2ncnc(NCc3cccc(NC(=O)Nc4ccc(C(C)C)cc4)c3)c2cc1OCCCCCCN1CCC(CN2CCN(c3ccccn3)CC2)CC1 [Compound 8-2i, N-(3-(((7-methoxy-6-((6-(4-((4-(pyridin-2-yl)piperazin-1-yl)methyl)piperidin-1-yl)hexyl)oxy)quinazolin-4-yl)amino)methyl)phenyl)-N′-(4-isopropylphenyl)urea] | 7.63 ± 0.87 | 4.97 ± 0.48 | 5.92 ± 0.47 | 9.42 ± 0.83 | 6.69 ± 0.49 | 6.21 ± 0.63 | 8.97 ± 0.89 | 4.24 ± 0.32 | 10.8 ± 0.74 | 6.32 ± 0.44 | 6.38 ± 0.33 | 3.85 ± 0.29 | 4.79 ± 0.46 | 5.88 ± 0.35 | 10.5 ± 0.36 |  |  |  |  |

Continued, in another order:

| IC50 (A549 cells) [µM] | IC50 (HeLa cells) [µM] | IC50 (T24 cells) [µM] | IC50 (PANC-1 cells) [µM] | IC50 (SK-OV-3 cells) [µM] | IC50 (MCF-7 cells) [µM] | IC50 (BxPC-3 cells) [µM] | SMILES | IC50 (5637 cells) [µM] | IC50 [1] [µM] | IC50 (UM-UC-3 cells) [µM] | IC50 (143B cells) [µM] | IC50 (Hep G2 cells; [3]) [µM] | IC50 (MG-63 cells) [µM] | IC50 (J82 cells) [µM] | IC50 [2] [µM] | Sensitivity of PANC-1, in words (PANC-1 cells) | Anti-proliferative activity against Hep G2 versus comparative series, in words (Hep G2 cells) | IC50 (Hep G2 cells; read-out: IC50 on Hep G2) [µM] | Sensitivity of BxPC-3 / anti-proliferative activity against BxPC-3, in words (BxPC-3 cells) |
| --- | --- | --- | --- | --- | --- | --- | --- | --- | --- | --- | --- | --- | --- | --- | --- | --- | --- | --- | --- |
| 5.47 ± 0.22 | 5.72 ± 0.41 | 6.96 ± 0.85 | 14.5 ± 0.94 | 6.21 ± 0.55 | 7.25 ± 0.66 | 5.92 ± 0.38 | COc1cc2ncnc(NCc3cccc(NC(=O)Nc4ccccc4C)c3)c2cc1OCCCCCCN1CCC(CN2CCN(c3ccccn3)CC2)CC1 [Compound 8-2b, N-(3-(((7-methoxy-6-((6-(4-((4-(pyridin-2-yl)piperazin-1-yl)methyl)piperidin-1-yl)hexyl)oxy)quinazolin-4-yl)amino)methyl)phenyl)-N′-(2-methylphenyl)urea] | 4.79 ± 0.43 | 8.74 ± 0.63 | 7.03 ± 0.37 | 6.47 ± 0.34 | 4.04 ± 0.28 | 6.44 ± 0.81 | 6.86 ± 0.52 | 9.02 ± 0.41 |  |  |  |  |
| 8.39 ± 0.85 | 6.19 ± 0.53 | 7.29 ± 0.61 | 19.2 ± 1.08 | 7.94 ± 0.66 | 6.69 ± 0.48 | 13.4 ± 0.88 | COc1cc2ncnc(NCc3cccc(NC(=O)Nc4cccc(C)c4)c3)c2cc1OCCCCCCN1CCC(CN2CCN(c3ccccn3)CC2)CC1 [Compound 8-2c, N-(3-(((7-methoxy-6-((6-(4-((4-(pyridin-2-yl)piperazin-1-yl)methyl)piperidin-1-yl)hexyl)oxy)quinazolin-4-yl)amino)methyl)phenyl)-N′-(3-methylphenyl)urea] | 7.06 ± 0.57 | 8.28 ± 0.51 | 8.98 ± 0.89 | 6.01 ± 0.46 | 4.69 ± 0.36 | 6.83 ± 0.62 | 7.02 ± 0.58 | 11.2 ± 0.49 |  |  |  |  |
| 4.92 ± 0.29 | 5.26 ± 0.29 | 5.57 ± 0.36 | 8.37 ± 0.66 | 7.26 ± 0.72 | 7.65 ± 0.69 | 5.46 ± 0.44 | COc1cc2ncnc(NCc3cccc(NC(=O)Nc4ccc(C)cc4C)c3)c2cc1OCCCCCCN1CCC(CN2CCN(c3ccccn3)CC2)CC1 [Compound 8-2e, N-(3-(((7-methoxy-6-((6-(4-((4-(pyridin-2-yl)piperazin-1-yl)methyl)piperidin-1-yl)hexyl)oxy)quinazolin-4-yl)amino)methyl)phenyl)-N′-(2,4-dimethylphenyl)urea] | 4.31 ± 0.42 | 7.56 ± 0.38 | 6.68 ± 0.47 | 5.19 ± 0.33 | 3.68 ± 0.19 | 7.03 ± 0.71 | 5.31 ± 0.26 | 10.9 ± 0.66 | heightened sensitivity | significantly better than that of 9a to 9y | 3.68 ± 0.19 | heightened sensitivity |
| 7.67 ± 0.93 | 7.25 ± 0.38 | 6.01 ± 0.46 | 12.8 ± 0.62 | 14.2 ± 0.84 | 8.09 ± 0.48 | 9.06 ± 0.42 | COc1cc2ncnc(NCc3cccc(NC(=O)Nc4cc(C)cc(C)c4)c3)c2cc1OCCCCCCN1CCC(CN2CCN(c3ccccn3)CC2)CC1 [Compound 8-2f, N-(3-(((7-methoxy-6-((6-(4-((4-(pyridin-2-yl)piperazin-1-yl)methyl)piperidin-1-yl)hexyl)oxy)quinazolin-4-yl)amino)methyl)phenyl)-N′-(3,5-dimethylphenyl)urea] | 6.91 ± 0.67 | 11.6 ± 0.79 | 12 ± 0.86 | 5.75 ± 0.36 | 11.7 ± 0.84 | 6.92 ± 0.53 | 12 ± 0.87 | 9.89 ± 0.53 |  |  |  |  |
| 14.2 ± 1.31 | 5.51 ± 0.49 | 5.34 ± 0.27 | 15.9 ± 0.94 | 6.32 ± 0.56 | 6.68 ± 0.79 | 7.11 ± 0.79 | COc1ccccc1NC(=O)Nc1cccc(CNc2ncnc3cc(OC)c(OCCCCCCN4CCC(CN5CCN(c6ccccn6)CC5)CC4)cc23)c1 [Compound 8-2k, N-(3-(((7-methoxy-6-((6-(4-((4-(pyridin-2-yl)piperazin-1-yl)methyl)piperidin-1-yl)hexyl)oxy)quinazolin-4-yl)amino)methyl)phenyl)-N′-(2-methoxyphenyl)urea] | 5.63 ± 0.38 | 13 ± 0.88 | 7.19 ± 0.52 | 6.08 ± 0.37 | 4.99 ± 0.47 | 6.38 ± 0.43 | 5.68 ± 0.42 | 11.2 ± 0.65 |  |  |  |  |
